Experimental data published in patent publication US20250389725A1, “METHOD FOR DETECTION OF SULFUR-CONTAINING AMINO ACID AS BIOMARKER FOR GLIOBLASTOMA USING NOVEL FLUORESCENT PROBE AND FLUORESCENCE-GUIDED SURGERY IMAGING APPLICATION THEREOF” (UNIVERSITY-INDUSTRY COOPERATION GROUP OF KYUNG HEE …, priority 2023, published 2025).

How the values were obtained:
Assay type in all cases: cell-based
[1] = system: cervical cancer cells (HeLa); assay: CCK-8 cell viability (toxicity), HeLa; settings: CCK-8, compared to leaving groups with similar structures
Description: (§1) Specifically, for cell preparation, approximately 5×10^3 cells each of glioblastoma cells (U87MG), hepatoma cells (Huh7), cervical cancer cells (HeLa), and skin cancer cells (B16F10) were treated in a 96-well clear plate (SPL Life Science, Ref. of Korea), cultured at 37° C. for 24 hours, and then treated with Compound 1 (NPO-o-Pyr, 10 μM) and analyzed using a CCK-8 assay kit (Dofindo, Japan) according to the manufacturer's instructions. Absorbance levels were analyzed at a wavelength of 490 nm by a microplate reader (SpctraMax Gemini EM, Molecular Devices, US). 2-Hydroxypyridine and various leaving groups with similar structures thereto were treated in U87MG, Huh7, HeLa, and B16F10 cells, and the cell viability was measured, which was shown in FIG. 12.

[2] = system: skin cancer cells (B16F10); assay: CCK-8 cell viability (toxicity), B16F10; settings: B16F10, CCK-8, compared to leaving groups with similar structures
Description: as §1

[3] = system: glioblastoma cells (U87MG); assay: CCK-8 cell viability (toxicity), U87MG; settings: CCK-8, compared to leaving groups with similar structures
Description: as §1

[4] = system: hepatoma cells (Huh7); assay: CCK-8 cell viability (toxicity), Huh7; settings: Huh7, CCK-8, compared to leaving groups with similar structures
Description: as §1

Measured: toxicity (cell viability)

Oc1ccccn1 [2-hydroxypyridine]
very low: all assays above
